# Earlier results, collected in patent US20190343827A1, “DEUTERATED ANALOGS OF TARIQUIDAR” (Izumi Technology, LLC, priority 2018, published 2019).
# Legend:
# [1] = patients with lung, ovarian and cervical cancer
# [2] = tested on: non-small-cell lung cancer; settings: co-administration with paclitaxel or carboplatin
smiles,measurement,setting,value
"COc1cc2c(cc1OC)CN(CCc1ccc(NC(=O)c3cc(OC)c(OC)cc3NC(=O)c3cnc4ccccc4c3)cc1)CC2 [Tariquidar, N-[2-[[4-[2-(6,7-dimethoxy-3,4-dihydro-1H-isoquinolin-2-yl)ethyl]phenyl]carbamoyl]-4,5-dimethoxyphenyl]quinoline-3-carboxamide]",docetaxel disposition as a result of tariquidar co-administration,[1],No significant differences
same,"study outcome, toxicity",[2],terminated early due to toxicity
same,clinical response,"refractory solid tumors; children and adolescents with refractory solid tumors, 29 patients",low
same,clearance of docetaxel and vinorelbine,"refractory solid tumors; co-administered with tariquidar, compared to historic data in absence of tariquidar",reduced
same,"complete response, number of patients",refractory solid tumors; out of 29 patients,one
same,"partial response, number of patients",refractory solid tumors; out of 29 patients,two
